Experimental data from US12667106B2, “Stabilized mutants of quorum quenching lactonase and use thereof in treatment of pathogens” (priority 2019, dated 2026).

Legend:
Erwinia amylovora [1] = type: in vivo; details: 6 days post inoculation, 4 ppm, growth chamber
Erwinia amylovora [2] = type: in vivo; details: field, 13 days post inoculation, FIG. 5C

`CCn1cc(C(=O)O)c(=O)c2cc3c(cc21)OCO3` [oxolinic acid] was tested, and the “inhibition of flower infection relative to untreated control” value (Erwinia amylovora [1]) was 45% and the “inhibition of fire blight symptoms” value (Erwinia amylovora [2]) was 70%.
